The values below come from PubChem BioAssay (NCI).

Holding throughout (assay): NCI anticancer screen, dose series, 48 h
In test [1] the test system is UACC-257 melanoma.
Test [2] has as its system NCI-H23 lung.
The subject of test [3] is SNB-78 CNS.
In test [4] the test system is HT29 colon.
The subject of test [5] is OVCAR-5 ovarian.
The subject of test [6] is SF-268 CNS.
In test [7] the test system is SK-MEL-5 melanoma.
Test [8] relates to U251 CNS.
Test [9] deals with LXFL 529 NSCLC.
In test [10] the test system is HOP-92 NSCLC.

Values joined by “and” are separate entries in the source; they are usually repeats but may differ in a detail not shown here. Equal values may be shown once.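 Test compounds were applied to cells in 96-well plates for 48 hours at 5 doses. GI50: concentration for 50% inhibition of growth. TGI marks complete inhibition of growth.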 Where a SMILES comes first, the peptide text is derived from it. [ ]: non-standard residue; d: D form. Phe(F5) = N[CH](Cc1c(F)c(F)c(F)c(F)c1F)C(=O)O A value given as a limit tells only on which side of the number the result lay.

Turning to `CN(C)c1ccc2c(NCCCCCCNc3ccnc4cc(N(C)C)ccc34)ccnc2c1`, the TGI was 49.9 µM in test [1]; 27.2 µM in test [2]; above 100 µM in test [3]; above 100 µM in test [4]; 79.6 µM in test [5]; above 100 µM in test [6]. Also, the TGI is above 100 µM in test [7] and 24.3 µM in test [8].
Turning to `CC[C@](C)(O)C(=O)O[C@H]1C(=O)O[C@@H]2C[C@H]3C(C)=CC(=O)[C@@H](O)[C@]3(C)[C@H]3[C@@]4(O)OC[C@]32[C@@H]1[C@@H](C)[C@H]4O`, the GI50 is 0.142 µM in test [1]; 0.05 µM in test [2]; 0.0556 µM in [3]; 0.321 µM and 0.122 µM in [4]; 0.762 µM in test [5]; 0.155 µM in test [6]. The TGI in test [1] was 0.841 µM and 0.218 µM; in [2] it was 0.532 µM and 0.136 µM; in [3], 0.289 µM and 0.28 µM; in test [9] it was 0.0317 µM; in [4], 10.3 µM and 2.27 µM; in test [5], 8.16 µM and 6.86 µM. Also, the TGI in test [6] was 0.633 µM and 0.226 µM; in test [7] it was 0.136 µM; in test [8], 0.41 µM and 0.121 µM.
In the case of `Nc1cc(=O)[nH]c(SC2=NC(N)CC(O)C2)n1` (centres undefined), the TGI in test [1], in [2], in test [3], in test [9], in test [4] and in test [5] was above 100 µM each time. The TGI in test [10], in test [7] and in [8] was above 100 µM each time.
Take `CC(=O)[O][Pb]([O]C(C)=O)([c]1ccccc1)[c]1ccccc1`: the GI50 in test [1] was 6.88 µM; in test [2], 2.35 µM; in test [3] it was 1.45 µM; in [9] it was 5.57 µM; in test [4] it was 14.5 µM; in test [5], 25.9 µM. Also, the GI50 in [6] was 3.29 µM; in [10], 3.62 µM; in test [7], 2.91 µM; in test [8], 4.69 µM. The TGI in test [1] was above 100 µM; in test [2], 13.4 µM; in test [3] it was 7.63 µM; in [9], above 100 µM; in test [4], above 100 µM; in test [5] it was above 100 µM. Besides, the TGI was 16.6 µM in [6], above 100 µM in test [10], 14 µM in test [7] and 10 µM in test [8].
For `CN1CCc2c1nc(-c1ccccc1)c1c2N(C)CC1`, the TGI in [1], in [2], in [3], in [9], in test [4] and in [5] was above 100 µM each time. Moreover, the TGI is above 100 µM in test [6], 91 µM in [10], above 100 µM in [7] and above 100 µM in [8].
For `CCC[CH2][Sn]([CH2]CCC)([O]C(C)=O)[O]C(C)=O`, the GI50 in test [1] is 1.39 µM; in test [2], 1.21 µM; in test [3], 0.511 µM; in test [9] it was 0.241 µM; in test [4], 1.7 µM; in test [5], 1.23 µM. The GI50 in [6] was 1.23 µM; in test [10], 1.92 µM; in test [7], 1.04 µM; in test [8] it was 0.888 µM. The TGI in [1] was found to be 3.26 µM; in test [2], 2.91 µM; in [3], 2.33 µM; in [9] it was 1.24 µM; in test [4], 3.53 µM; in test [5], 2.71 µM. Besides, the TGI in [6] amounted to 4.1 µM; in test [10], 4.13 µM; in test [7], 2.4 µM; in test [8] it was 2.09 µM.
As for `COC(=O)CCC(=O)N1Cc2cc(C)ccc2N(C(=O)CCC(=O)OC)Cc2cc(C)ccc21`, the TGI in test [2], in [3], in test [4], in test [5], in test [6] and in test [10] was above 100 µM in each case. Besides, the TGI in test [7] and in test [8] was above 100 µM throughout.
For `CCc1ccc(NCc2cc(OC)c(OC)c(OC)c2)cc1`, the TGI in [1] is above 100 µM; in [2] it was 24.8 µM and 15.1 µM; in test [9] it was 14 µM and 65.4 µM; in [4], 1.72 µM and 1.39 µM; in [5], above 76.1 µM; in [6], 43.6 µM and 64.8 µM. The TGI in test [10] was 22.2 µM and 74.6 µM; in [7] it was 7.84 µM and 14.7 µM; in test [8] it was 22.2 µM and 11.9 µM. For the same molecule, the GI50 in [9] was 0.523 µM and 1.57 µM; in test [5], 4.09 µM; in test [6], 0.862 µM and 1.78 µM; in [10], 5.24 µM; in test [7] it was 0.297 µM and 0.104 µM; in [8] it was 0.411 µM and 0.167 µM.
Regarding `CS(=O)(=O)CC1=Nc2nnc(CCCCCCCc3nnc4n3C(=O)C(CS(C)(=O)=O)=N4)n2C1=O`, the TGI in test [1], in test [2], in test [9], in [4], in test [5] and in test [6] was above 100 µM each time. In addition, the TGI in test [10], in [7] and in test [8] was above 100 µM throughout.
Regarding `COC(=O)C(CC(C)C)NC(=O)C(Cc1cnc[nH]1)NC(=O)CNC(=O)C(NC(=O)C(C)NC(=O)C(Cc1c[nH]c2ccccc12)NC(=O)C(CCC(=O)O)NC(=O)C(N)Cc1c(F)c(F)c(F)c(F)c1F)C(C)C` (centres undefined) (H-[Phe(F5)]EWAVGHL-OMe; configuration not given here), the GI50 in test [1], in test [2], in test [4] and in test [8] was above 100 µM each time. The TGI was above 100 µM in test [1]; above 100 µM in [2]; above 100 µM in [3]; above 100 µM in test [9]; above 100 µM in [4]; above 12.5 µM in [5]. Also, the TGI is above 12.5 µM in test [6], above 12.5 µM in test [7] and above 100 µM in test [8].
`COc1ccccc1[N-]C(C1=C([O-])c2ccccc2C1=O)c1ccccc1.COc1ccccc1[N-]C(C1=C([O-])c2ccccc2C1=O)c1ccccc1.[Cu+2]` (centres undefined): the GI50 in test [1] is 12.9 µM; in test [2], 7.17 µM; in [3], 8.19 µM; in [9], 22.4 µM; in test [4], 18.2 µM; in test [6], 5.3 µM. For the same molecule, the GI50 is 9.86 µM in [10], 5.39 µM in test [7] and 2.88 µM in test [8]. In addition, the TGI in [1] was above 100 µM; in test [2] it was 61.2 µM; in test [3], above 100 µM; in test [9] it was above 100 µM; in [4], above 100 µM; in test [6], above 100 µM. The TGI was determined as 69.7 µM in test [10], 72.7 µM in [7] and 8.33 µM in [8].
On to `O=C(NCCCCCCNC(=O)c1cccc2ccccc12)c1cccc2ccccc12`, for which the TGI in [1] is above 100 µM; in test [2] it was above 100 µM; in test [3], 48.9 µM; in test [9], above 100 µM; in test [4] it was above 100 µM; in test [5] it was above 100 µM. For the same molecule, the TGI in test [6] was 81.9 µM; in [10] it was 25.8 µM; in test [7], above 100 µM; in [8], 53.8 µM.
For the molecule `COC12C=CC(CC1)c1c(O)ccc(O)c12` (centres undefined), the TGI is above 100 µM in test [1]; above 100 µM in test [2]; above 100 µM in test [3]; above 71.3 µM in test [9]; above 100 µM in [4]; above 100 µM in test [5]. Moreover, the TGI in test [6] is above 31.6 µM; in [7], above 100 µM; in test [8], above 100 µM.
On to `CC1=C2CCCC2C/C(=N/Nc2ccc([N+](=O)[O-])cc2[N+](=O)[O-])CC1` (centres undefined), for which the TGI in [1], in [2], in test [9], in test [4], in test [5] and in [6] was above 100 µM each time. Further, the TGI in test [10], in test [7] and in test [8] was above 100 µM in each case.
Take `CC1CC2C(=O)NC(=O)C2c2[nH]c3ccccc3c21` (centres undefined): the TGI in test [2], in [3], in test [9], in test [4], in test [5] and in test [6] was above 100 µM in each case. The TGI in test [10], in test [7] and in test [8] was above 100 µM throughout.
For the molecule `COC(=O)[C@@H]1CSC(=S)N1C(=O)C[C@H]1CC=CC[C@H]1CC(=O)Sc1ccccc1`, the TGI in test [1] is 35.9 µM; in test [2], 46.5 µM; in test [3], 49.2 µM; in test [9], 30.5 µM; in test [4] it was 37.4 µM; in [5], 33.8 µM. The TGI in [6] is 35.1 µM; in test [8], 32.4 µM.
As to `CC1(Sc2ccccc2)CN(Cc2ccccc2)C1=O` (centres undefined), the TGI in test [1] is above 100 µM; in [2] it was above 100 µM; in test [3], above 100 µM; in test [4] it was above 100 µM; in [6], above 100 µM; in [10] it was 86 µM. Also, the TGI in test [7] and in test [8] was above 100 µM in each case.
On to `C=C1C(=O)OC2CC3(C)C=CC(=O)C(=C)C3CC12` (centres undefined), for which the TGI in test [1] was 3.1 µM; in test [2] it was 3.48 µM; in test [3] it was 14 µM; in test [9], 1.93 µM; in test [4], 3.45 µM; in [5] it was 8.05 µM. Also, the TGI in test [6] worked out at 6.91 µM; in [10] it was 3.49 µM; in test [7] it was 3.48 µM; in test [8], 13.5 µM.
Regarding `CCOP(=O)(OCC)C1CCCCOC1=O` (centres undefined), the TGI in [1], in [2], in test [3], in [9], in [4] and in test [6] was above 100 µM in each case. Further, the TGI in test [7] and in test [8] was above 100 µM throughout.
On to `C=C(C)[C@@H]1CC=C(CO)CC1`, for which the GI50 in test [1], in test [2], in test [4], in [5], in test [6] and in test [10] was above 10 µM throughout. Further, the GI50 in test [7] and in [8] was above 10 µM in each case. For the same molecule, the TGI is > 10 µM and 1150 µM in test [1]; > 10 µM and 1120 µM in [2]; 988 µM in test [3]; 1320 µM in test [9]; > 10 µM and 702 µM in test [4]; > 10 µM and 798 µM in test [5]. The TGI is > 10 µM and 709 µM in [6]; > 10 µM and 830 µM in test [10]; > 10 µM and 649 µM in [7]; > 10 µM and 806 µM in test [8].
